The values that follow come from PubChem BioAssay (NCI).

Common to all, as to assay: inhibition of tumour cell growth, NCI panel, 48 h
Assay [1] concerns COLO 205 colon.
Assay [2] concerns U251 CNS.
Assay [3] relates to CCRF-CEM leukemia.
In assay [4] the test system is NCI-H226 lung.
For assay [5], the system named is EKVX NSCLC.
Assay [6] deals with NCI-H460 lung.
Assay [7] has as its system OVCAR-3 ovarian.
In assay [8] the test system is HCC-2998 colon.
In assay [9] the test system is UACC-257 melanoma.
The test system of assay [10] is SK-MEL-28 melanoma.

Where “and” joins values, the source holds several entries; their conditions need not be identical. Equal entries are not always repeated.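 Where inhibition never reached the appropriate level, the endpoint shown equals the highest concentration tested. Otherwise, values were interpolated linearly from a five-concentration, 48-hour dose response in 96-well plates. The concentration for 50% growth inhibition is given as GI50. TGI is the concentration that stops growth completely.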

On to `CNC(=O)c1c(NC(=O)c2ccc(C(F)(F)F)cc2)sc2c1CCC(=O)C2`, for which the GI50 in assay [1] is 0.603 µM; in assay [2] it was 0.314 µM; in assay [3] it was 0.155 µM; in [4] it was 1.82 µM; in assay [5], 0.89 µM; in assay [6], 0.89 µM. In addition, the GI50 in [7] is 0.812 µM; in assay [8] it was 1.09 µM; in assay [9] it was 1.73 µM; in [10], 0.864 µM. Further, the TGI in assay [1] came out at 3.1 µM; in assay [2], 2.06 µM; in assay [4] it was 5.35 µM; in assay [5], 6.05 µM; in [6], 4.19 µM; in [7] it was 3.29 µM. The TGI in [8] is 4.12 µM; in [9] it was 6.22 µM; in [10], 3.67 µM.
For the compound `Cc1cccc(-c2nn3c(c2-c2ccnc4ccc(C(N)=O)cc24)CCC3)n1`, the GI50 in assay [1], in assay [2], in assay [3], in [4], in assay [5] and in assay [6] was over 100 µM throughout. Further, the GI50 in [7], in assay [8], in assay [9] and in assay [10] was over 100 µM throughout. The TGI in assay [1], in assay [2], in [3], in assay [4], in assay [5] and in [6] was over 100 µM in each case. For the same compound, the TGI in [7], in [8], in assay [9] and in assay [10] was over 100 µM each time.
For the compound `CCCCCCCCCCCCCCCCOCC(CN(C)CCN(C)C)OCCCCCCCCCCCCCCCC` (stereo not given), the TGI in assay [1], in assay [2], in assay [3], in [4], in assay [5] and in assay [6] was over 100 µM in each case. For the same compound, the TGI in [7], in assay [8], in [9] and in assay [10] was over 100 µM throughout.
With `CC(=O)[O-].CC(=O)[O-].O=C(N/N=C/c1cc(Cl)cc(Cl)c1O)c1ccncc1.[Ni+2]`, the TGI in [1], in [2], in assay [3], in assay [4], in [5] and in assay [6] was over 100 µM each time. For the same compound, the TGI is 80.8 µM in assay [7], over 100 µM in [8], 96.6 µM in assay [9] and over 100 µM in assay [10].
Turning to `CC1=C(C(=O)Nc2ccccc2C)C(c2ccc(C3C(C(=O)Nc4ccccc4C)=C(C)NC(C)=C3C(=O)Nc3ccccc3C)cc2)C(C(=O)Nc2ccccc2C)=C(C)N1`, the TGI in assay [1] was 14.5 µM; in [2] it was 7.34 µM; in assay [3] it was 7.82 µM; in assay [4], 28.7 µM; in assay [5] it was 19.2 µM; in [6], 24.9 µM. Besides, the TGI in [7] was 18.5 µM; in assay [8] it was 9.31 µM; in assay [9], 9.84 µM; in [10], 4.26 µM.
In the case of `O=C1Nc2cc(Cl)ccc2N=CC1NC(=O)C(c1ccccc1)c1ccccc1Cl` (stereo not given), the TGI in [1], in assay [2], in assay [3], in assay [4], in [5] and in assay [6] was over 100 µM each time. Further, the TGI in [7], in assay [8], in [9] and in [10] was over 100 µM in each case.
For `CCN1C(=O)N(CC)C2C1NN=c1s/c(=C\c3ccccc3F)c(=O)n12` (stereo not given), the GI50 was 0.0271 µM in assay [1]; 0.0354 µM in assay [2]; 0.0386 µM in assay [3]; 11.2 µM in assay [4]; 0.0481 µM in assay [5]; 0.0355 µM in assay [6]. Also, the GI50 in assay [7] is 0.0282 µM; in assay [8], 0.0334 µM; in [9], 2.11 µM; in assay [10], 62.4 µM. Also, the TGI is 0.0737 µM in assay [1]; over 100 µM in [2]; over 100 µM in assay [3]; over 100 µM in [4]; over 100 µM in [5]; over 40.6 µM in assay [6]. The TGI was 0.0789 µM in assay [7], over 58.8 µM in assay [8], over 100 µM in assay [9] and over 100 µM in assay [10].
In the case of `C[C@H](N)C(=O)N[C@@H]1[C@H]2C(=C(O)C[C@@H](O)[C@@H]2O)C(=O)O[C@]1(C)C(Cl)Cl`, the GI50 in assay [1] was 0.13 µM; in assay [2] it was 0.171 µM; in [3] it was 0.108 µM and 0.087 µM; in assay [4], 0.266 µM; in assay [5], 0.472 µM; in [6], 0.146 µM. Besides, the GI50 in assay [7] is 0.454 µM; in [8] it was 0.224 µM; in assay [9], 0.096 µM. For the same compound, the TGI in [1] is 0.212 µM and 0.37 µM; in assay [2], 3.08 µM and 2.29 µM; in [3] it was 2.25 µM and 1.58 µM; in [4] it was 1.34 µM and 1.06 µM; in assay [5] it was 4.66 µM and 2.23 µM; in [6], 1.4 µM and 1.2 µM. For the same compound, the TGI in [7] is 9.36 µM and 1.94 µM; in assay [8], 0.745 µM and 1.16 µM; in assay [9], 1.16 µM and 1.94 µM; in assay [10], 2.75 µM and 1.65 µM.
Turning to `Cc1c(-c2ccccc2)c(=O)oc2ccc(Cl)cc12`, the TGI in assay [1], in assay [2], in [3], in assay [4], in assay [5] and in assay [6] was over 100 µM throughout. The TGI in assay [7], in [8], in assay [9] and in assay [10] was over 100 µM each time.
Regarding `O=c1[nH]cc(/C=N\Nc2ccccc2)c(=O)[nH]1`, the TGI in [1], in [2], in [3], in [4], in assay [5] and in [6] was over 100 µM each time. Also, the TGI in assay [7], in assay [8], in assay [9] and in [10] was over 100 µM each time.
Consider `C=CC(=O)N1C/C(=C\c2ccccc2)C(=O)/C(=C/c2ccccc2)C1`, for which the TGI was found to be 3.87 µM in [1]; 2.62 µM in assay [2]; 3.55 µM in assay [3]; 10.6 µM in assay [4]; 9.42 µM in assay [5]; 4.47 µM in assay [6]. Also, the TGI in assay [7] turned out to be 4.47 µM; in assay [8], 3.67 µM; in assay [9] it was 4.29 µM; in assay [10], 3.78 µM. For the same compound, the figures for the GI50 in assay [2] and in assay [3] were 0.376 µM and 0.927 µM, respectively.
With `COc1ccccc1/C=C/C(=O)c1c(O)cc2occc2c1OC`, the GI50 in assay [1] was over 100 µM; in assay [2], 18.9 µM; in [3] it was 9.72 µM; in assay [4] it was 25.1 µM; in assay [5], 37.1 µM; in [6], over 100 µM. Moreover, the GI50 was 47.4 µM in [7], over 100 µM in assay [8], over 100 µM in [9] and over 100 µM in assay [10]. The TGI in assay [1], in assay [2], in [3], in [4], in [5] and in [6] was over 100 µM in each case. Further, the TGI in [7], in assay [8], in assay [9] and in assay [10] was over 100 µM throughout.
For `CNC1C(O)C(OC2C(N)CC(N)C(OC3OC(CN)=CCC3N)C2O)OCC1(C)O` (stereo not given), the TGI in assay [1], in assay [2], in [3], in assay [4], in assay [5] and in assay [6] was over 100 µM throughout. The TGI in assay [7], in assay [8], in [9] and in assay [10] was over 100 µM throughout.
On to `CCCCCCCCCCCCNC(=O)[C@H]1CSC(c2cc3ccccc3s2)N1` (stereo not given in full), for which the GI50 was 6.46 µM in assay [1]; 2.61 µM in [2]; 0.725 µM in assay [3]; 3 µM in assay [4]; 0.951 µM in assay [5]; 1.02 µM in [6]. Further, the GI50 was 3.79 µM in assay [7], 4.88 µM in assay [8], 4.12 µM in assay [9] and 0.644 µM in assay [10]. Besides, the TGI in assay [1] came to 12.3 µM; in assay [2] it was 7.19 µM; in assay [3], 1.68 µM; in [4], 7.88 µM; in assay [5], 2.69 µM; in assay [6] it was 2.5 µM. For the same compound, the TGI in [7] is 9.5 µM; in assay [8], 9.72 µM; in assay [9], 8.6 µM; in [10], 1.39 µM.
Regarding `COC(=O)[C@@]1(Cc2ccccc2)[C@H]2c3cc(C(=O)N4CCCC4)n(Cc4ccc(OC)c(OC)c4)c3C[C@H]2CN1C(=O)c1ccccc1`, the GI50 in [1] is 5.83 µM; in assay [2], 13 µM; in [3] it was 16.4 µM; in assay [4], 9.78 µM; in [5], 9.84 µM; in [6] it was 9.12 µM. The GI50 in assay [7] was 9.03 µM; in [8], 8.86 µM; in assay [9] it was 7.72 µM; in [10] it was 10.1 µM. The TGI was 12.4 µM in [1]; 40.7 µM in assay [2]; over 50 µM in assay [3]; 19.3 µM in assay [4]; 21.2 µM in assay [5]; 18.9 µM in assay [6]. Further, the TGI in [7] stood at 21 µM; in assay [8], 15.8 µM; in assay [9], 15.2 µM; in assay [10], 21.7 µM.
On to `CN1CCC(CNc2ccc3ncc(-c4cccc(OC(F)(F)F)c4)n3n2)CC1`, for which the GI50 was 1.59 µM and 1.47 µM in assay [1]; 1.6 µM and 1.44 µM in assay [2]; 3.36 µM and 2.03 µM in assay [3]; 1.82 µM and 3.62 µM in assay [4]; 3.45 µM and 9.78 µM in assay [5]; 2.16 µM and 2.94 µM in [6]. The GI50 was 1.7 µM and 2.15 µM in assay [7]; 1.57 µM and 1.45 µM in assay [8]; 1.51 µM and 1.44 µM in assay [9]; 1.55 µM and 1.61 µM in [10]. Besides, the TGI in assay [1] was 3.07 µM and 3.08 µM; in [2] it was 3.23 µM and 2.97 µM; in assay [3], 15.9 µM and 5.78 µM; in assay [4] it was 8.49 µM and > 10 µM; in assay [5], 14.5 µM and > 10 µM; in assay [6] it was 5.68 µM and > 10 µM. Moreover, the TGI was 3.79 µM and > 10 µM in assay [7]; 3.15 µM and 3.32 µM in assay [8]; 3.05 µM and 2.8 µM in assay [9]; 2.99 µM and 3.14 µM in assay [10].
For `O=C(CCCCCCCn1cc(-c2cccnc2)nn1)Nc1ccccc1-c1ccccc1`, the GI50 in assay [1] is 1.92 µM; in assay [2], 0.22 µM; in assay [3], 0.435 µM; in [4], 14.5 µM; in assay [5], 10.5 µM; in [6], 0.674 µM. Also, the GI50 was 5.72 µM in [7], 0.385 µM in assay [8], 7.75 µM in assay [9] and 13.2 µM in assay [10]. In addition, the TGI is 49.7 µM in assay [1]; over 100 µM in [2]; over 100 µM in assay [3]; 50.2 µM in [4]; over 100 µM in [5]; over 100 µM in assay [6]. The TGI was over 100 µM in [7], over 61.8 µM in assay [8], 24.9 µM in assay [9] and over 95 µM in assay [10].
For `CCCOc1ccc(-c2nc(-c3ccc(N=Cc4ccc(N(CCOS(C)(=O)=O)CCOS(C)(=O)=O)cc4C)cc3)cs2)cc1`, the TGI in assay [1] is 14.9 µM; in assay [2], 52.4 µM; in [3], over 100 µM; in assay [4], 84.5 µM; in [5], 56.9 µM; in assay [6] it was 24 µM. Also, the TGI is 55.4 µM in assay [7], 26.8 µM in [8], over 100 µM in assay [9] and over 100 µM in assay [10].
Take `COc1c2ccoc2cc2oc(=O)ccc12`: the TGI in assay [1], in [2], in [3], in assay [4], in [5] and in assay [6] was over 100 µM each time. The TGI in assay [7], in assay [8], in assay [9] and in [10] was over 100 µM in each case.
